Here are results for 31 compounds from patent publication US20230192703A1, “Polycyclic amide derivative as CDK9 inhibitor, preparation method therefor and use thereof” (Suzhou AlphaMa Biotechnology Co., Ltd., priority 2020, published 2023).

pIC50: −log10 of the molar value. Where only a bound is given, the exact number is not on record here.

For test [1], the target named is T1, CDK9 kinase (Homo sapiens, UniProt P50750).
T1 construct: purchased Millipore 14-685M
Description: Inhibitory effect on the kinase activity of CDK9 in vitro. It counts as biochemical. Particulars: CDK9 kinase (Millipore), CTD3 substrate polypeptide, Caliper. How it is done:
The detection of the inhibitory effect of the compounds of the present disclosure on the kinase activity of CDK9 in vitro was determined by the following method:
Compound preparation: The compound was accurately weighed and dissolved in DMSO (Sigma, D2650) to a concentration of 100 um for later use. The compound was diluted to 5-fold of a desired highest concentration, and diluted 4-fold into 6 concentration gradients, allowing the final concentration of the compound in the reaction system to be 100, 25, 6.25, 1.56, 0.39, 0.098 nM. 5 ul was taken to a 384-well plate (Corning, 4512).
Detection: Data was collected by Caliper.
Calculation: The IC50 value was calculated by Graphpad prism 5.0 software according to the concentration of the compound and the corresponding signal value.

For test [2], the system named is Mv4-11 cells. Description: Inhibition of the proliferation of Mv4-11 cells (CCK8). The note with it: Mv4-11 cell proliferation, CCK8 OD450. It counts as cell-based. As for the experimental part:
The inhibition effect of the compounds of the present disclosure on the proliferation of Mv4-11 cells (ATCC:CRL-9591TM) in vitro was determined by the following method:
Cell inoculation: Mv4-11 cells with good growing state in logarithmic growth phase were inoculated into a 96-well plate at 20000 cells per well and 50 uL, and cultured at 37° C. and under 5% CO2 condition for 2-4 h. Administration: The compound was diluted with 1640 medium containing 10% FBS and 1% PS: 0.4 uL of the compound with an initial concentration of 1 mM was placed in a dilution plate, each added with 199.6 uL of the above culture medium, and gradiently diluted 4-fold, so that the final concentration in the added cell was 1000, 250, 62.5, 15.625, 3.91, 0.98, 0.24, 0.06 nM. 50 μL of the medium containing the compound was sequentially added, and it was placed in a 37° C., 5% CO2 cell incubator for 48 hours.
Detection: 10 uL CCK8 (Dojindo, CK 04) solution was added to each well, incubated in 37° C. 5% CO2 cell incubator for 2 hours, and then the OD450 value was read by Synegry H1 (BioTek) multimode microplate reader.
Calculation: The IC50 value was calculated using Graphpad prism 5.0 software according to the concentration of the compound and the corresponding signal value.

T1 sequence (P50750 whole entry): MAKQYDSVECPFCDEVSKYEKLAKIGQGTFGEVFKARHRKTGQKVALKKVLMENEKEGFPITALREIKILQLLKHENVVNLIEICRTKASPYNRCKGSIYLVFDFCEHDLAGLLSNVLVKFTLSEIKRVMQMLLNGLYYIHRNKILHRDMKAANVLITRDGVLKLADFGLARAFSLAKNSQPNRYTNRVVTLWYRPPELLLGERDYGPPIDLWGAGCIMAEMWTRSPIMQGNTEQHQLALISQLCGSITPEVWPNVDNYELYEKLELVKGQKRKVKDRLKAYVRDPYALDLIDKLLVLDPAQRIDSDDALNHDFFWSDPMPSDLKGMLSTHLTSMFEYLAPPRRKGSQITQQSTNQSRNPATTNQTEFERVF
T1 sequence (O60563 whole entry partner): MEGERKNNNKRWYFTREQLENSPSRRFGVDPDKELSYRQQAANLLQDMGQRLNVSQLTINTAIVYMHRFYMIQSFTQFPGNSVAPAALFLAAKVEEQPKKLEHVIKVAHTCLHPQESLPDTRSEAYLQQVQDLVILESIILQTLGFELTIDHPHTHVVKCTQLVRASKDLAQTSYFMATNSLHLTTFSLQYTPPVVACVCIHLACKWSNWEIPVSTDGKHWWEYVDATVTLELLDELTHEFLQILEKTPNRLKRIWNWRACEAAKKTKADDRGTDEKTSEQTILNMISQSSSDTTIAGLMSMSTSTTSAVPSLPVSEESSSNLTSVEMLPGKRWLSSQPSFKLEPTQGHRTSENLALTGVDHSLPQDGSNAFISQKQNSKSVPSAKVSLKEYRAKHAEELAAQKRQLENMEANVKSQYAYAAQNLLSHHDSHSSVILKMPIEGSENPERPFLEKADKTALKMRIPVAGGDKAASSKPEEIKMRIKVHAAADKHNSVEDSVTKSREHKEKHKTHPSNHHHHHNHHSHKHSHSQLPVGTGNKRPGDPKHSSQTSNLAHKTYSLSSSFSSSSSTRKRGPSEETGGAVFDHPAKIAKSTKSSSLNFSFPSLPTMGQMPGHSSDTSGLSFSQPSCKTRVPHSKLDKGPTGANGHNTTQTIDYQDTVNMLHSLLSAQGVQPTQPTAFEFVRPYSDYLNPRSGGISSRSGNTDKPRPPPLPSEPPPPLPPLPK

For orientation: pIC50 means the IC50 on a negative log10 scale, so that one unit is a factor of ten. With `CC(=O)N1C[C@H]2CC(C(=O)Nc3cc(-c4cnn5c4CC(C)(C)C5)c(Cl)cn3)C[C@H]2C1` (single isomer, unassigned) [Compound 4-2], the pIC50 in test [1] was 8.54; in test [2] (Homo sapiens, MV4-11, 48 h) it was 8.17.

With `CC(=O)N1C[C@H]2CC(C(=O)Nc3cc(-c4cc(C(N)=O)n5c4CC(C)(C)C5)c(Cl)cn3)C[C@H]2C1` (single isomer, unassigned) [Compound 8-1], the pIC50 is 8.46 in test [1] and 8.11 in test [2] (48 hours).

`CC(=O)N1C[C@H]2CC(C(=O)Nc3cc(-c4cc(C(N)=O)n5c4CC(C)(C)C5)c(Cl)cn3)C[C@H]2C1` (single isomer, unassigned) [Compound 8-2]: the pIC50 in test [1] is 8.51; in test [2] (48 hours), 9.40.

As to `CC(=O)N[C@H]1C[C@@H]2C[C@@H](C(=O)Nc3cc(-c4cc(C#N)n5c4CC(C)(C)C5)c(Cl)cn3)C[C@@H]2C1` (single isomer, unassigned) [Compound 14-1-1], the pIC50 in test [2] (Homo sapiens, MV4-11, 48 h) was 7.62.

Take `CC(=O)N[C@@H]1C[C@@H]2C[C@@H](C(=O)Nc3cc(-c4cc(C#N)n5c4CC(C)(C)C5)c(Cl)cn3)C[C@@H]2C1` (single isomer, unassigned) [Compound 14-1-2]: the pIC50 in test [2] (Homo sapiens, MV4-11, 48 h) was 7.95.

Consider `CC(=O)N[C@H]1C[C@@H]2C[C@H](C(=O)Nc3cc(-c4cc(C#N)n5c4CC(C)(C)C5)c(Cl)cn3)C[C@@H]2C1` (single isomer, unassigned) [Compound 14-2-1], for which the pIC50 is 8.37 in test [1] and 7.97 in test [2] (Homo sapiens, MV4-11, 48 h).

Take `CC(=O)N[C@@H]1C[C@@H]2C[C@H](C(=O)Nc3cc(-c4cc(C#N)n5c4CC(C)(C)C5)c(Cl)cn3)C[C@@H]2C1` (single isomer, unassigned) [Compound 14-2-2]: the pIC50 in test [1] was 7.98; in test [2] (Homo sapiens, MV4-11, 48 h) it was 7.35.

For the compound `CC(=O)N1CC[C@@]2(CC[C@H](C(=O)Nc3cc(-c4cnn5c4CC(C)(C)C5)c(Cl)cn3)C2)C1` (single isomer, unassigned) [Compound 18-1], the pIC50 in test [1] is 8.49; in test [2] (Homo sapiens, MV4-11, 48 h), 8.85.

For the compound `CC(=O)N1CC[C@@]2(CC[C@@H](C(=O)Nc3cc(-c4cnn5c4CC(C)(C)C5)c(Cl)cn3)C2)C1` (single isomer, unassigned) [Compound 19-1], the pIC50 in test [1] was 8.26; in test [2] (Homo sapiens, MV4-11, 48 h), 7.91.

`CC(=O)N1CC[C@]2(CC[C@H](C(=O)Nc3cc(-c4cnn5c4CC(C)(C)C5)c(Cl)cn3)C2)C1` (single isomer, unassigned) [Compound 19-2] gave a pIC50 in test [2] (Homo sapiens, MV4-11, 48 h) of 7.07.

For `CC1(C)Cc2c(-c3cc(NC(=O)[C@H]4CCC[C@H](c5cccnc5)C4)ncc3Cl)cnn2C1` (single isomer, unassigned) [Compound 20-1], the negative-log IC50 (pIC50) in test [1] is 7.54; in test [2] (Homo sapiens, MV4-11, 48 h), 6.45.

Turning to `CC1(C)Cc2c(-c3cc(NC(=O)[C@@H]4CCC[C@H](c5cccnc5)C4)ncc3Cl)cnn2C1` (single isomer, unassigned) [Compound 20-2], the pIC50 was 8.15 in test [1] and 7.82 in test [2] (Homo sapiens, MV4-11, 48 h).

`CC1(C)Cc2c(-c3cc(NC(=O)[C@H]4CCC[C@@H](c5cccnc5)C4)ncc3Cl)cnn2C1` (single isomer, unassigned) [Compound 20-3]: the pIC50 is under 7.00 in test [1] and under 6.00 in test [2] (Homo sapiens, MV4-11, 48 h).

Regarding `CC1(C)Cc2c(-c3cc(NC(=O)[C@@H]4CCC[C@@H](c5cccnc5)C4)ncc3Cl)cnn2C1` (single isomer, unassigned) [Compound 20-4], the pIC50 in test [1] was 8.55; in test [2] (Homo sapiens, MV4-11, 48 h), 9.30.

As for `CC1(C)Cc2c(-c3cc(NC(=O)[C@H]4CCC[C@H](c5ccncc5)C4)ncc3Cl)cnn2C1` (single isomer, unassigned) [Compound 21-1], the pIC50 in test [2] (Homo sapiens, MV4-11, 48 h) was 7.16.

Regarding `CC1(C)Cc2c(-c3cc(NC(=O)[C@@H]4CCC[C@H](c5ccncc5)C4)ncc3Cl)cnn2C1` (single isomer, unassigned) [Compound 21-2], in test [2] (Homo sapiens, MV4-11, 48 h), the pIC50 was 7.79.

For `CC1(C)Cc2c(-c3cc(NC(=O)[C@H]4CCC[C@@H](c5ccncc5)C4)ncc3Cl)cnn2C1` (single isomer, unassigned) [Compound 21-3], the pIC50 was 8.55 in test [1] and 8.20 in test [2] (Homo sapiens, MV4-11, 48 h).

On to `CC1(C)Cc2c(-c3cc(NC(=O)[C@@H]4CCC[C@@H](c5ccncc5)C4)ncc3Cl)cnn2C1` (single isomer, unassigned) [Compound 21-4], for which, in test [2] (Homo sapiens, MV4-11, 48 h), the pIC50 was 7.14.

As to `Cn1cc([C@@H]2CCC[C@H](C(=O)Nc3cc(-c4cnn5c4CC(C)(C)C5)c(Cl)cn3)C2)cn1` (single isomer, unassigned) [Compound 23-1], the pIC50 in test [1] is 8.42; in test [2] (Homo sapiens, MV4-11, 48 h) it was 8.10.

Regarding `CC(=O)N[C@H]1C[C@@H]2C[C@@H](C(=O)Nc3cc(-c4cc(C(N)=O)n5c4CC(C)(C)C5)c(Cl)cn3)C[C@@H]2C1` (single isomer, unassigned) [Compound 24-1], the pIC50 was 8.42 in test [1] and 8.23 in test [2] (Homo sapiens, MV4-11, 48 h).

With `CNC(=O)C1C[C@@H]2CC(C(=O)Nc3cc(-c4cc(C(N)=O)n5c4CC(C)(C)C5)c(Cl)cn3)C[C@@H]2C1` (single isomer, unassigned) [Compound 26-1], the pIC50 is 8.54 in test [1] and 8.39 in test [2] (Homo sapiens, MV4-11, 48 h).

Turning to `CNC(=O)C1C[C@@H]2CC(C(=O)Nc3cc(-c4cc(C(N)=O)n5c4CC(C)(C)C5)c(Cl)cn3)C[C@@H]2C1` (single isomer, unassigned) [Compound 26-2], the figures for the pIC50 in test [1] and in test [2] (48 hours) were 8.46 and 8.29, respectively.

In turn, `CC(=O)N[C@@H]1CCC[C@H](C(=O)Nc2cc(-c3cnn4c3CC(C)(C)C4)c(Cl)cn2)C1` [AZD4573, reference compound] showed a pIC50 in test [2] (Homo sapiens, MV4-11, 48 h) of 8.38.

The compound `CC(=O)N1C[C@H]2C[C@H](C(=O)Nc3cc(-c4cnn5c4CC(C)(C)C5)c(Cl)cn3)C[C@H]2C1` [Compound 4-1, (3aR,5s,6aS)-2-acetyl-N-(5-chloro-4-(5,5-dimethyl-5,6-dihydro-4H-pyrrolo[1,2-b]pyrazol-3-yl)pyridin-2-yl)octahydrocyclopenta[c]pyrrole-5-carboxamide] gave a pIC50 in test [2] (Homo sapiens, MV4-11, 48 h) of 7.83.

In test [2] (Homo sapiens, MV4-11, 48 h), `CC(=O)N1C[C@H]2C[C@@H](C(=O)Nc3cc(-c4cc(C#N)n5c4CC(C)(C)C5)c(Cl)cn3)C[C@H]2C1` [Compound 7-2, (3aR,5r,6aS)-2-acetyl-N-(5-chloro-4-(5-cyano-2,2-dimethyl-2,3-dihydro-1H-pyrrolizin-7-yl)pyridin-2-yl)octahydrocyclopenta[c]pyrrole-5-carboxamide] showed a pIC50 of 8.07.

With `CC(=O)N[C@@H]1CCC[C@H](C(=O)Nc2cc(-c3cc(C#N)n4c3CC(C)(C)C4)c(F)cn2)C1` [Compound 10, (1S,3R)-3-acetamido-N-(4-(5-cyano-2,2-dimethyl-2,3-dihydro-1H-pyrrolizin-7-yl)-5-fluoropyridin-2-yl)cyclohexane-1-carboxamide], in test [2] (Homo sapiens, MV4-11, 48 h), the pIC50 is 7.57.

`CC(=O)N[C@@H]1CCC[C@H](C(=O)Nc2cc(-c3cc(C#N)n4c3CC(C)(C)C4)ccn2)C1` [Compound 11, (1S,3R)-3-acetamido-N-(4-(5-cyano-2,2-dimethyl-2,3-dihydro-1H-pyrrolizin-7-yl)pyridin-2-yl)cyclohexane-1-carboxamide] gave a pIC50 in test [2] (Homo sapiens, MV4-11, 48 h) of 8.66.

The compound `CC(=O)N[C@@H]1CCC[C@H](C(=O)Nc2cc(-c3cc(C#N)c4n3CC(C)(C)C4)c(Cl)cn2)C1` [Compound 16, (1S,3R)-3-acetamido-N-(5-chloro-4-(7-cyano-2,2-dimethyl-2,3-dihydro-1H-pyrrolizin-5-yl)pyridin-2-yl)cyclohexane-1-carboxamide] showed a pIC50 in test [1] of 8.54.

In turn, `CC(=O)N[C@@H]1CCC[C@H](C(=O)Nc2cc(-c3cc(C(N)=O)c4n3CC(C)(C)C4)ccn2)C1` [Compound 28, 5-(2-((1S,3R)-3-acetylaminocyclohexane-1-carboxamido)pyridin-4-yl)-2,2-dimethyl-2,3-dihydro-1H-pyrrolizine-7-carboxamide] gave a pIC50 in test [2] (Homo sapiens, MV4-11, 48 h) of 7.44.

In test [2] (Homo sapiens, MV4-11, 48 h), `CC(=O)N[C@@H]1CCC[C@H](C(=O)Nc2cc(-c3cc(C(N)=O)n4c3CC(C)(C)C4)c(F)cn2)C1` [Compound 33, 7-(2-((1S,3R)-3-acetylaminocyclohexane-1-carboxamido)-5-fluoropyridin-4-yl)-2,2-dimethyl-2,3-dihydro-1H-pyrrolizine-5-carboxamide] had a pIC50 of 8.89.

In the case of `CC(=O)N[C@@H]1C[C@@H]2C[C@H](C(=O)Nc3cc(-c4cc(C(N)=O)n5c4CC(C)(C)C5)c(F)cn3)C[C@@H]2C1` [Compound 34-2, 7-(2-((2s,3aR,5r,6aS)-5-acetylaminooctahydropentalene-2-carboxamido)-5-fluoropyridin-4-yl)-2,2-dimethyl-2,3-dihydro-1H-pyrrolizine-5-carboxamide], the pIC50 in test [2] (Homo sapiens, MV4-11, 48 h) is 8.05.
